Several values for one entry are separate records, joined by “and”; a condition that tells them apart may be missing. Equal values may be shown once. Read-outs that look alike come from different tables or passages of the source.
Assays:
Aβ secretion = assay: Secreted total Aβ ELISA in conditioned media of H4βAPP695 wt cells; format: cell-based, human
In short: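 H4 […] cells stably expressing wild-type βAPP695 (CMV promoter), serum-starved 24 h, then exposed to drug in DMSO or vehicle for 24 h before Aβ in conditioned media was measured. Primary cortical neurons came from E18 APPswe/PSEN1dE9 mice on C57BL/6 background.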

[1] = test system: THLE-3 human hepatoma cells; assay: Drug activity persistence after incubation with THLE-3 hepatoma cells; format: in vitro ADME; settings: for inhibition at 10 µM: Homo sapiens, THLE3, 24 h
Protocol: (§1) H4βAPP695 wt cells, a human […] cell line stably transfected with a wtβAPP695 expression vector construct under the control of a CMV promoter (kindly provided by Dr. Chris Eckman from Mayo Clinic, Florida) were cultured as previously described. Twenty-four hours before drug treatment, the media was replaced with serum-free media. Cells were then incubated with drugs (dissolved in DMSO) or vehicle for 24 h for collection of conditioned media and cell lysates. For the PKC inhibitors experiment, three inhibitors were treated 30 min prior to drug challenge. Primary cortical neurons were prepared from embryonic day 18 APP and presenilin 1 (APPswe, PSEN1dE9) transgenic mice on the C57BL/6 genetic background (Jackson Laboratories, strain no. 5864) as previously described. THLE-3 human hepatoma cells (from ATCC) were plated in 24-well plates that were precoated with 10 μg/mL bovine serum albumin, 10 μg/mL fibronectin, and 30 μg/mL bovine type I collagen. The cells were grown in BEGM media (Clonetics) until confluent and treated with drugs at 20 μM for 24 h. This conditioned media was harvested, diluted 1:1 in serum-free medium, and incubated with H4βAPP695 wt cells for 24 h prior to analysis of secreted Aβ, which was compared to the effect of 10 μM drug treatments without prior incubation with the THLE-3 cells. Caco-2 cells (ATCC) were plated in 12-well plates with Transwell inserts (Costar) at 70000 cells per well and grown for 21 days. The media volume of the apical and basal chambers was 0.5 and 1.5 mL, respectively. Transepithelial resistance was measured in each well and found to be >160 Ω/cm^2. Drugs at 40 μM and 20 μg/mL of lucifer yellow were added in serum-free medium to the apical chamber. Four hours later, the basal chamber media was harvested and used to measure lucifer yellow fluorescence to confirm monolayer integrity as well as for treatment of H4βAPP695 wt cells for 24 h prior to analysis of secreted Aβ, which was compared to the effect of direct addition of 10 μM of the corresponding drug.
To screen for resistance to metabolism, 1 and eight noncytotoxic analogues with >50% Aβ reducing activity (compounds 27, 29, 48, 52, 53, 65, 73, and 76) were incubated at 20 μM for 24 h with or without THLE-3 human hepatoma cells.

Caco-2 cells = assay: Epithelial transcellular transport of drug activity through Caco-2 monolayers; format: in vitro ADME
Protocol: as §1
Monolayer integrity was confirmed by high levels of transcellular electrical resistance (>160 ohms/cm^2) and by transcellular impermeability to the fluorescent dye lucifer yellow. […] The concentration of each compound added to the upper chamber would lead to 10 μM in the lower chamber if equilibration was complete, and thus the activity of the lower chamber media was compared to the activity of 10 μM drug added directly to the H4βAPP695 wt cells. […] Compound 1 crossed the monolayer and the bottom chamber media led to a 27% reduction in Aβ production, yielding 38% of the theoretical activity. The compound with the most activity in the lower chamber was compound 48, which decreased Aβ production by 50%, with 71% of its theoretical activity. […] On the basis of the combined activity data from these last two studies, compound 48 was selected as the lead drug for in vivo study.

cerebral Aβ levels [2] = assay: In vivo iv administration and cerebral Aβ assay; design: species or system mouse; settings: APP/PS1 transgenic mice, iv 100 to 125 mg/kg single dose, 6 h
Protocol: Transgenic mice expressing humanized mutant versions of APP and presenilin 1 (APPswe, PSEN1dE9) on the C57BL/6 genetic background were obtained from Jackson Laboratories (strain no. 5864) and bred to wild type C57BL/6 mice in order to obtain ˜50% transgenic that were used in these studies. These mice develop Aβ senile plaques by 6 months of age. To prepare the drug stock, 17.5 mg of compound 48 was dissolved in 40 μL of DMSO, which was mixed sequentially with 110 μL of Cremophor EL (Sigma) and 900 μL of sterile saline. Two month old female transgenic mice weighing 20-25 g were anesthetized with ketamine/xylazine and injected iv via the retroorbital plexus with vehicle control or with 2.5 mg of compound 48 in 150 μL of the drug stock (yielding a dose of ˜100 to 125 mg/kg). Six h later, the mice were euthanized by CO2 inhalation, the brains were removed, and the cerebellum discarded. One brain hemisphere was homogenized for 45 s on ice using a tissue grinder in 1 mL of solution containing 5 M guanadine HCl, 50 mM Tris (final pH adjusted to 8.3), and 5% protease inhibitor cocktail. Any debris was removed by centrifugation for 10 min at 2000 g. The supernatant was diluted 1:10 in 20% casein blocker in PBS with 5% protease inhibitor cocktail. […] The protein concentration of the brain homogenate was determined with the BCA assay, and the total Aβ levels were normalized to brain protein levels. […]

cerebral Aβ levels [3] = assay: Oral treatment and cerebral Aβ ELISA in mutant APP/PS1 transgenic mice; format: in vivo, mouse; settings: 3 oral gavages, estimated 200 mg/kg in Cremaphor over 1.5 day
Protocol: (§2) In this Example, mutant APP/PS1 transgenic mice were obtained from Dr. Mathias Jucker (R Radde et al. 2006, EMBO Reports 7:940-946). […] The drug was milled into the chow diet (Harlan Teklad #2018) at 4 doses: 0.31, 0.62, 1.25, and 2.5 g/kg. Assuming each mouse eats 4 g of per day, the lowest dose should yield 1.24 mg intake per day, or about 75 mg/kg body weight. Six-week old female transgenic mice were fed ad librium with the chow diet or the diet supplemented with the four drug doses. […] At the end of the study, brains were isolated, and half brains were homogenized in a buffer containing guanidine hydrochloride and SDS. This extract was diluted and used in assays for total protein and an ELISA for Abeta levels. […] There was not a dose response in this study, as the effect appeared to plateau out even at the lowest dose of the drug, 0.31 g/kg diet. This oral diet study supported a prior finding using 3 oral gavages of this drug at an estimated dose of 200 mg/kg body weight delivered in Cremaphor over a 1.5 day period in which we observed a 30% decrease in cerebral Aβ levels (data not shown).

[4] = Body weight after one-week oral feeding; format: in vivo, mouse; settings: 0.31-2.5 g/kg in chow diet
Protocol: as §2

H4βAPP695 wt cells = assay: Cytotoxicity by total cell protein content (BCA) of H4βAPP695 wt cells; settings: cytotoxicity
Protocol: Cells were washed with cold phosphate buffered saline (PBS) and lysed on ice by vigorous mixing over 15 min with RIPA buffer containing 50 mM Tris-HCl (pH 8.0), 150 mM sodium chloride, 1% NP-40, 0.5% sodium deoxycholate, and 0.1% SDS, supplemented with 10% protease inhibitor cocktail and 2 mM PMSF. After centrifugation at 14000 g for 30 min to remove nuclei and other debris at 4° C., the protein content of the supernatants was measured using the BCA assay kit (Pierce).
The initial screen was performed in 96-well plates with drugs distributed by the hanging drop method yielding estimated drug levels of 10-25 μM. Total Aβ levels in the 24 h conditioned media were measured by a sandwich ELISA assay, and cytotoxicity was assessed by methylene blue staining of the cells in the wells, as previously described.

% remaining Activity ([1]; after 24 h incubation with hepatoma cells): 54%
% theoretical activity (Caco-2 cells; % of activity passing through Caco-2 monolayer): 71% and 70.8%
melting point: 56 to 57 °C
Structure (SMILES): Cc1cccc(CSCCNC(=O)c2c(Cl)cccc2Cl)c1 [Compound 48, 2,6-Dichloro-N-[2-(3-methyl-benzylsulfanyl)-ethyl]-benzamide]
inhibition at 30 µM (Aβ secretion; Homo sapiens, 24 h, 30 μM, H4βAPP695 wt cells, 24 h, read-out: Total Aβ (% decrease) 30 μM Mean): 85.8%
Aβ secretion inhibiting activity (structure activity summary) (Aβ secretion; in words): good activity
inhibition at 10 µM ([1]; 10 μM on H4 cells, without preincubation with hepatoma cells, read-out: hepatoma incubation No total Aβ (% decrease)): 70.5%
inhibition at 10 µM ([1]; 20 μM preincubated 24 h with THLE-3 hepatoma cells, diluted to 10 μM on H4 cells, read-out: hepatoma incubation Yes total Aβ (% decrease)): 38%
inhibition at 10 µM (Caco-2 cells; Homo sapiens, Caco-2, 10 μM drug alone added directly to H4βAPP695 wt cells, read-out: transcellular transport No total Aβ (% decrease)): 70.5%
inhibition at up to 10 µM (Caco-2 cells; Homo sapiens, Caco-2, 4 h, lower chamber media after 4 h on Caco-2 monolayer, 10 μM if in equilibrium, read-out: transcellular transport Yes total Aβ (% decrease)): 50%
reduction in cerebral Aβ levels (cerebral Aβ levels [2]): 39.6%
decrease in cerebral Aβ levels, oral gavage (cerebral Aβ levels [3]): 30%
effect on body weights [4]: no significant effect
Cell protein (% decrease) 10 μM Mean (H4βAPP695 wt cells; 10 μM): 11.7%
Cell protein (% decrease) 30 μM Mean (H4βAPP695 wt cells; 30 μM): 16.6%

Reference: patent publication US20130158112A1, “COMPOSITIONS AND METHODS FOR INHIBITING BETA AMYLOID SECRETION” (priority 2011, published 2013)
